This note sets out measurements from patent publication US11147796B2, “Agent for preventing or ameliorating hearing impairment” (Tohoku University, priority 2017, dated 2021).

The term melting point denotes the temperature of the solid-liquid transition. The compound `O=C(CC(C(=O)O)c1c[nH]c2cccc(Cl)c12)c1ccc(F)cc1F` (centres unmarked) [Compound (2-1), 2-(4-chloro-1H-indol-3-yl)-4-(2,4-difluorophenyl)-4-oxo-butanoic Acid] registered a melting point of 203 to 204 °C.

`O=C(CC(C(=O)O)c1c[nH]c2ccc(F)cc12)c1ccc(F)cc1F` (centres unmarked) [Compound (3-1), 4-(2,4-difluorophenyl)-2-(5-fluoro-1H-indol-3-yl)-4-oxo-butanoic Acid] registered a melting point of 207 to 208 °C.

In the case of `O=C(CC(C(=O)O)c1c[nH]c2ccc(Cl)cc12)c1ccc(F)cc1F` (centres unmarked) [Compound (3-2), 2-(5-chloro-1H-indol-3-yl)-4-(2,4-difluorophenyl)-4-oxo-butanoic Acid], the melting point lay in the range of 236 to 239 °C.

`Cc1ccc2[nH]cc(C(CC(=O)c3ccc(F)cc3F)C(=O)O)c2c1` (centres unmarked) [Compound (3-3), 4-(2,4-difluorophenyl)-2-(5-methyl-1H-indol-3-yl)-4-oxo-butanoic Acid] displayed a melting point of 200 to 202 °C.

As for `COc1ccc2[nH]cc(C(CC(=O)c3ccc(F)cc3F)C(=O)O)c2c1` (centres unmarked) [Compound (3-4), 4-(2,4-difluorophenyl)-2-(5-methoxy-1H-indol-3-yl)-4-oxo-butanoic Acid], the melting point lay within 205 to 206 °C.

With `O=C(CC(C(=O)O)c1c[nH]c2cc(F)ccc12)c1ccc(F)cc1F` (centres unmarked) [Compound (4-1), 4-(2,4-difluorophenyl)-2-(6-fluoro-1H-indol-3-yl)-4-oxo-butanoic Acid], the melting point fell in the range of 210 to 214 °C.

Consider `O=C(CC(C(=O)O)c1c[nH]c2cc(OCc3ccccc3)ccc12)c1ccc(F)cc1F` (centres unmarked) [Compound (4-2), 2-(6-benzyloxy-1H-indol-3-yl)-4-(2,4-difluorophenyl)-4-oxo-butanoic Acid], for which the melting point was in the range of 177 to 178 °C.

For the compound `O=C(CC(C(=O)O)c1c[nH]c2c(Cl)cccc12)c1ccc(F)cc1F` (centres unmarked) [Compound (5-1), 2-(7-chloro-1H-indol-3-yl)-4-(2,4-difluorophenyl)-4-oxo-butanoic Acid], the melting point lay in the range of 225 to 227 °C.

The compound `COc1cccc2c(C(CC(=O)c3ccc(F)cc3F)C(=O)O)c[nH]c12` (centres unmarked) [Compound (5-2), 4-(2,4-difluorophenyl)-2-(7-methoxy-1H-indol-3-yl)-4-oxo-butanoic Acid] returned a melting point of 181 to 183 °C.

In turn, `Cn1cc(C(CC(=O)c2ccc(F)cc2F)C(=O)O)c2ccccc21` (centres unmarked) [Compound (6-1), 4-(2,4-difluorophenyl)-2-(1-methyl-1H-indol-3-yl)-4-oxo-butanoic Acid] registered a melting point of 192 to 193 °C.

In turn, `CCCn1cc(C(CC(=O)c2ccc(C)cc2C)C(=O)O)c2ccccc21` (centres unmarked) [compound 6, 4-(2,4-Dimethylphenyl)-2-(1-propyl-1H-indol-3-yl)-4-oxo-butanoic Acid] yielded a melting point of 139 to 141 °C.

For the compound `O=C(CC(C(=O)O)c1c[nH]c2ccccc12)c1ccccc1` (centres unmarked) [compound #20, 4-Phenyl-2-(1H-indol-3-yl)-4-oxo-butanoic Acid], the melting point fell in the range of 149 to 150 °C.

Compound `CCCCOc1ccc2cccc(CC(=O)O)c2c1` [compound #33, α-(7-Butoxy-1-naphthalenyl)-acetic Acid] registered a melting point of 102 to 104 °C.

The compound `CCCCCOc1ccc2cccc(CC(=O)O)c2c1` [compound #34, α-(7-Pentoxy-1-naphthalenyl)-acetic Acid] registered a melting point of 104 to 106 °C.

`CCOc1ccc2[nH]cc(CC(=O)O)c2c1` [compound #37, 5-Ethoxy-3-indoleacetic Acid] returned a melting point of 86 to 92.7 °C.

In turn, `CCCOc1ccc2[nH]cc(CC(=O)O)c2c1` [compound #38, 5-(1-Propoxy)-3-indoleacetic Acid] gave a melting point of 133.6 to 136.8 °C.

For `CCCCOc1ccc2[nH]cc(CC(=O)O)c2c1` [compound #39, 5-(1-Butoxy)-3-indoleacetic Acid], the melting point fell in the range of 137.8 to 141.1 °C.
